Measurements as given in patent US20220041627A1, “PRODRUGS OF ANTI-CANCER AND ANTI-AUTOIMMUNE DISEASES THERAPEUTIC AGENTS, AND METHODS OF MAKING AND USE THEREOF” (UNIVERSITY OF MARYLAND, BALTIMORE, priority 2018, published 2022).

Assays:
[1] = tested on: wild-type C57BL/6 male mice; experiment: Acute toxicity in mice; type: in vivo; settings: 100 mg/kg i.p. every other day for 15 days, C57BL/6 male mice
Experimental: FIGS. 5A and 5B illustrate the survival rate (FIG. 5A) and body weight (FIG. 5B) curves of the various groups of mice. […] Mice were treated every other day by intraperitoneal (i.p.) injection for 15 days, the survival and body weights of the mice were recorded after treatment.
Mice were treated every other day by intraperitoneal (i.p.) injection for 15 days, the survival and body weights of the mice were recorded after treatment.

γH2AX = γH2AX immunofluorescence assay in MCF7 cells; type: cell-based, human; settings: 48 h
Experimental: (§1) FIGS. 4A and 4B illustrate the effect of compounds 1a-1b in apoptosis. FIG. 4A: immunofluorescence of DNA cleavage protein γH2Ax was enhanced by using 5-FU and prodrugs 1a-1b. FIG. 4B: immunoblot analysis of MCF-7 cells treated with 5-FU, prodrugs 1a-1b for apoptosis markers PARP1 and Caspase 3. The cells were treated for 48 h with the indicated concentrations of compounds.
Immunohistochemistry Analysis. MCF7 cells were seeded on poly-D-lysine coated slides. Compounds were incubated with cells for 48 h. Following treatment, cells were washed once in PBS and fixed in 10% formalin for 20 min at room temperature. Methanol was used to permeabilize the cells for 10 min and PBS wash was carried out. Bovine serum albumin was used for 1 h blocking and primary antibodies for γH2AX (SCBT, #sc-517348) was incubated with the cells overnight. Fluorescent secondary antibodies were incubated with cells along with DAPI. Cells were washed trice with PBS and the slides were mounted prior to confocal imaging.
(§2) To understand the mechanism of action of prodrugs 1a-1b, the impact of the treatment of compounds 1a-1b on the γH2AX formation in MCF7 cells were determined using immunofluorescence assay (FIG. 4A). […] The effects of prodrugs 1a-1b on the PARP1 and caspase 3 cleavage in MCF7 cells were also determined using Western blots assays (FIG. 4B). […] Treatment of 5-FU and compounds 1a-1b increased the levels of cleavage of PARP1 and caspase 3 in MCF7 cells, as compared with that in the vehicle-treated controls. Therefore, prodrugs 1a-1b, similar to 5-FU, can induce MCF7 cell apoptosis, which might contribute to their pharmacological actions.

PARP1 = experiment: Western blot of PARP1 in MCF7 cells; type: cell-based, human; settings: 48 h
Experimental: as §1
(§3) Western Blot Analysis. Treated cells were washed once with PBS and lysed with RIPA lysis buffer (Santa Cruz Biotechnology, SCBT, #24948) supplemented with sodium orthovanadate, PMSF, protease and phosphatase inhibitor cocktails (Sigma Aldrich). Cell lysates were centrifuge for 15 min at 14,000×g and the supernatant was used for immunoblotting. Protein concentration was normalized for the samples and resolved on a 10-13% SDS-PAGE gel. Following transfer to nitrocellulose membrane, specific mouse primary antibodies from SCBT (PARP1 #sc-8007, caspase 3 #sc-7272) and Cell Signaling (cleaved PARP1 #9541, cleaved caspase-3 #9664) were added and incubated overnight. Secondary antibodies corresponding to the host of the primary antibodies was further incubated with the membrane and washed three times to remove excess antibodies. Odyssey Fc Imaging System (LI-COR, Lincoln, Nebr.) was used to quantify the chemiluminescent of the proteins.
as §2

[2] = target: dihydropyrimidine dehydrogenase (DPD) (Homo sapiens, UniProt Q12882); settings: injected 5-FU, degradation into 5-FUH2; cited from earlier work
caspase 3 = experiment: Western blot of caspase 3 in MCF7 cells; type: cell-based, human; settings: 48 h
Experimental: as §1, §3, §2

[3] = tested on: human colorectal cancer cells SW480; experiment: Anti-proliferative activity in SW480 cells; type: cell-based; settings: 10 μM, compared to parent drug 6MP
Experimental: FIG. 12 illustrates the anticancer effects and selectivity of 6MP (10 μM), prodrugs YA6131 (10 μM) and YA6075 (10 μM), evaluated in human colorectal cancer cells SW480 and normal HEK293 cells.
Anticancer effects and selectivity of 6MP (10 μM), prodrugs YA6131 (10 μM) and YA6075 (10 μM): the anticancer activities of prodrugs YA6131 and YA6075 were evaluated in comparison to the parent drug 6MP using the human colorectal cancer cells SW480 and normal HEK293 cells (FIG. 12). […] Without wishing to be bound by any particular theory, it was reasoned that the difference of the anticancer effects of the two prodrugs were due to their different release kinetics of the two compounds in the particular cells used.

breast cancer MCF7 cells = experiment: Cell viability (CCK8) in breast cancer MCF7 cells; type: cell-based, human; settings: different concentrations, compared with parent drug 5-FU
Experimental: FIGS. 2A and 2B illustrate the anticancer effects and selectivity of 5-FU and compounds 1a-1c. Cell viability was analyzed after the breast cancer MCF7 cells (FIG. 2A) and normal MEC1 cells (FIG. 2B) were treated with 5-FU or compounds 1a-1c at different concentrations. Data are presented as mean±SD, n=4.
Cell Counting Kit-8 (CCK8, Dojingo) was used to carry out the cytotoxicity assessment of the prodrugs. Seeded cells were treated with varying compound concentrations for 48-72 h and the CCK8 kit was used to measure the cytotoxicity. For NAC experiments, this ROS scavenger was pre-incubated with the cells for 2 h and then co-incubated with the prodrugs for additional 48 hours unless otherwise noted.
The anticancer effects of new compounds 1a and 1b were tested using the breast cancer MCF7 cells and normal MEC1 cells (FIGS. 2A and 2B). […] These differential killing results highlight the specificity of new prodrugs 1a-1b for cancer cells over normal cells. […] To further verify the role of ROS in the drug release process, the MTT assays was performed, using MCF7 cells pretreated with the ROS scavenger N-Acetyl-Cysteine (NAC).

[4] = compared to vehicle-treated cells
[5] = compared to vehicle-treated controls

Sequence of dihydropyrimidine dehydrogenase (DPD) (Q12882 4-1025): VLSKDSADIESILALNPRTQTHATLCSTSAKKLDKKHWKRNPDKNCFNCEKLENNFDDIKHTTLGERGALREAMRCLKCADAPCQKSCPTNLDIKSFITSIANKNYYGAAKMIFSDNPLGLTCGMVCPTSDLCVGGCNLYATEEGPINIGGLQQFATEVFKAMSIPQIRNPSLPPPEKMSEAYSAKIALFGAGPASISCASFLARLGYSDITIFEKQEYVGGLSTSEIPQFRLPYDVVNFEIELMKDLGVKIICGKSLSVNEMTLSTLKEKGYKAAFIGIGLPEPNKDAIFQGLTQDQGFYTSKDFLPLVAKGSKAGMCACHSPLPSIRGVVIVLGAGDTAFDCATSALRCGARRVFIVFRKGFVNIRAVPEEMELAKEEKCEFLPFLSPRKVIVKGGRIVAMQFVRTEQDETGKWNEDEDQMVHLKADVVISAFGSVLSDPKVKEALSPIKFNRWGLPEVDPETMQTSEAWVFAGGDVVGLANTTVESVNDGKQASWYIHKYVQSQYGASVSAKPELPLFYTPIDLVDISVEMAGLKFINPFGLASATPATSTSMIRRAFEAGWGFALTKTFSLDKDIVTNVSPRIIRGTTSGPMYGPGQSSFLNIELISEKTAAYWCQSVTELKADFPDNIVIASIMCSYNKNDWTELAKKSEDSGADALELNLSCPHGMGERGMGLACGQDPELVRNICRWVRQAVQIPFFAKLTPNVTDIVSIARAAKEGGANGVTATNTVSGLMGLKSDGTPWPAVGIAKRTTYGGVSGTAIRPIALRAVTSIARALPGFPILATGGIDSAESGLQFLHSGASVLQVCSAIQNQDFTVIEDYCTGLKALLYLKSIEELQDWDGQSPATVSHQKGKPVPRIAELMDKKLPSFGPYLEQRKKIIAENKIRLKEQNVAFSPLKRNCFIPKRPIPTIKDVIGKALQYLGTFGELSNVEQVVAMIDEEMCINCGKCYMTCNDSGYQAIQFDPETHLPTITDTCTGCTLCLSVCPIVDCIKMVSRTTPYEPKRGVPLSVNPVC

SMILES: O=c1[nH]cc(F)c(=O)[nH]1 [Compound 5-FU, 5-fluorouracil, reference compound]
- survival / animal death [1]: killed all mice on the twelfth day
- γH2AX formation (γH2AX): enhanced
- expression level of PARP1 (PARP1; [4]): significantly reduced
- level of cleavage of PARP1 (PARP1; [5]): increased
- share of injected doses deactivated by DPD [2]: more than 85%
- expression level of caspase 3 (caspase 3; [4]): significantly reduced
- level of cleavage of caspase 3 (caspase 3; [5]): increased

SMILES: CC1(C)OB(c2ccc(Cn3cnc4c(S)ncnc43)cc2)OC1(C)C [YA6075, 9-(4-(4,4,5,5-Tetramethyl-1,3,2-dioxaborolan-2-yl)benzyl)-9H-purine-6-thiol]
- anti-proliferative activity [3]: reduced effect

SMILES: CC1(C)OB(c2ccc(CSc3ncnc4[nH]cnc34)cc2)OC1(C)C [YA6131]
- anti-proliferative activity [3]: similarly potent anti-proliferative activity as compared to 6MP

SMILES: O=c1[nH]c(=O)n(Cc2ccccc2)cc1F [Compound 1c, 1-Benzyl-5-fluoropyrimidine-2,4(1H,3H)-dione]
- antiproliferative activity / anticancer effects (breast cancer MCF7 cells): no obvious antiproliferative effects
